Assay results published in ChEMBL document CHEMBL1201862, “PubChem BioAssay data set” (2004).
Activity calls are given as the source filed them.

Columns and labels:
[1] = biological target: T1, Acyl-homoserine lactone acylase PvdQ (Pseudomonas aeruginosa (strain LESB58), UniProt Q9I194); assay: P. aeruginosa PvdQ acylase inhibitors, dose response, biochemical, fluorescence, plate reader and imaging, cherry-picks (AID 493231)
T1 sequence (Q9I194 whole entry): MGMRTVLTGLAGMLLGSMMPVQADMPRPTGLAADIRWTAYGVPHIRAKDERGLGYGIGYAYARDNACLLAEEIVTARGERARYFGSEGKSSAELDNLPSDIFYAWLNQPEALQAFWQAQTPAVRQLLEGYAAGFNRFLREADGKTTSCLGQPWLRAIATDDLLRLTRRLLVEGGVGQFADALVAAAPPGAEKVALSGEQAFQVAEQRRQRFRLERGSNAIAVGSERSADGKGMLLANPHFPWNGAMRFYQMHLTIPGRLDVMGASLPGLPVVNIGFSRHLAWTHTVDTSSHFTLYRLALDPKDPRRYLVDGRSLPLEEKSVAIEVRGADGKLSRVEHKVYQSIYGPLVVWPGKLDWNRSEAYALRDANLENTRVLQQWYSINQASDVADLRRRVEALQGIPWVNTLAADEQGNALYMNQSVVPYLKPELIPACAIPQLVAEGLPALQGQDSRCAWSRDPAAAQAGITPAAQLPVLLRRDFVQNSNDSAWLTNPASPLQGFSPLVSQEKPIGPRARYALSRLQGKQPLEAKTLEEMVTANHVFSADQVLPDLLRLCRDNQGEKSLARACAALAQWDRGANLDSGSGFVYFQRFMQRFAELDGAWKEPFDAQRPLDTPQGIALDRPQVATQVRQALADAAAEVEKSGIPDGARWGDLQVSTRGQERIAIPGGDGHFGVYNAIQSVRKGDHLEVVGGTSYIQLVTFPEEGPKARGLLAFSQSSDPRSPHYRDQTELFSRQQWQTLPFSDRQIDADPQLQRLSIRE

Trypsin = Trypsin (Sus scrofa, UniProt P00761); assay: porcine trypsin inhibitors, dose response, selectivity assay for Rce1 protease inhibitor project, biochemical, quenched peptide fluorescence, cherry-pick (AID 488789)
Trypsin, sequence (P00761 whole entry): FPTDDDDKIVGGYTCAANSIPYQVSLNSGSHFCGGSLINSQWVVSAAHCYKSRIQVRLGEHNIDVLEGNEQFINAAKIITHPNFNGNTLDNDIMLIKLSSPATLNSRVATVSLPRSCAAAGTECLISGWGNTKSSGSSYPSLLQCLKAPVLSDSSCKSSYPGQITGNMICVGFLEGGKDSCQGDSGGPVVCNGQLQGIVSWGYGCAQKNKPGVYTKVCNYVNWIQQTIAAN

HEK293 = assay: inhibitors of LMP1-driven NF-kB reporter, dose response, cell-based, HEK293, luciferase, cherry-pick (AID 588343); assay type: functional; conditions: Homo sapiens
HeLa = assay: HeLa cell cytotoxicity, dose response, cytotoxicity control, 48 h, plate reader, cherry-picks (AID 504942); assay type: functional, cell-based; conditions: Homo sapiens
Protein skinhead-1 = biological target: T2, Protein skinhead-1 (Caenorhabditis elegans, UniProt P34707); assay type: functional
T2 sequence (P34707 whole entry): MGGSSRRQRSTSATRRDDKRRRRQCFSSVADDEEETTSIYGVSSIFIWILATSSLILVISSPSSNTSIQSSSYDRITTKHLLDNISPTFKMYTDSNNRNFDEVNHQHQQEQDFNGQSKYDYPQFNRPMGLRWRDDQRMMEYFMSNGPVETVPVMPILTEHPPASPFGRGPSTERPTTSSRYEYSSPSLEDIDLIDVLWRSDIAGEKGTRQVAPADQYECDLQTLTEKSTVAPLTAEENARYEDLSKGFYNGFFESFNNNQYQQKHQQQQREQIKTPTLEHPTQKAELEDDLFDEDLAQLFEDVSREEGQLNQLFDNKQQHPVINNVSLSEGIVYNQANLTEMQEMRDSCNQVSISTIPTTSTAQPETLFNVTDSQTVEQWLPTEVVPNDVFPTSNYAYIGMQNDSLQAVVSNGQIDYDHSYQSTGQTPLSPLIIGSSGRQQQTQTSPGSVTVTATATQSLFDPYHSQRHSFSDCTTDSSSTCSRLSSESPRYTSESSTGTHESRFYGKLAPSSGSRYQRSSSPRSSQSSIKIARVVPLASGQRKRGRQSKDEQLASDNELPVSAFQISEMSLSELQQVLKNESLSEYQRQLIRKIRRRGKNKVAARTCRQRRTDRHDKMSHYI

[2] = biological target: T3, Melanin-concentrating hormone receptor 1 (Homo sapiens, UniProt Q99705); assay: Late-stage fluorescence-based counterscreen for antagonists of the G-protein coupled receptor 7 (GPR7): cell-based dose response assay to identify antagonists of the melanin-concentrating hormone receptor 1 (MCHR1) Set 6.; assay type: functional
T3 sequence (Q99705 whole entry): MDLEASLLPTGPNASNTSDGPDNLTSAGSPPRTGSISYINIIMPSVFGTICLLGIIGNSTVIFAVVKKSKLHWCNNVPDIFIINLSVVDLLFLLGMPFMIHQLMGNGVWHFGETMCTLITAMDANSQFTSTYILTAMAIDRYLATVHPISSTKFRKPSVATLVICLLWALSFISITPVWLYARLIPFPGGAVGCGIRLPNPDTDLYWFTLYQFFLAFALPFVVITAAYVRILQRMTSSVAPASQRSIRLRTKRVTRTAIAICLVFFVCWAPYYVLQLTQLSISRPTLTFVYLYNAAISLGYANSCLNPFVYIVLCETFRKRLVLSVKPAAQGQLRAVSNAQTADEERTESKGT

[3] = biological target: T4, Neuropeptides B/W receptor type 1 (Homo sapiens, UniProt P48145); assay: GPR7 antagonist potency, late-stage follow-up, cell-based, fluorescence, dose response, set 6 (AID 588583); assay type: functional
T4 sequence (P48145 whole entry): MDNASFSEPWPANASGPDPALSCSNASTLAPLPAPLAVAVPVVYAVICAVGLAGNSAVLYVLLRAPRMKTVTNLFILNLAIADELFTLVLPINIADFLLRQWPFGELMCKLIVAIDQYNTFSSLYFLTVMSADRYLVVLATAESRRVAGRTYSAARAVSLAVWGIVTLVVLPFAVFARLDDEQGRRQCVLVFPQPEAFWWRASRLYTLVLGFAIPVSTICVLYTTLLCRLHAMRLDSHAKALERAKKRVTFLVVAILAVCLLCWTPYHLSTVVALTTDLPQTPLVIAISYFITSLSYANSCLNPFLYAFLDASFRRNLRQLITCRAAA

[4] = biological target: T4, Neuropeptides B/W receptor type 1; assay: GPR7 antagonist potency, late-stage follow-up, cell-based, fluorescence, dose response, set 5 (AID 588566); assay type: functional
[5] = biological target: T3, Melanin-concentrating hormone receptor 1; assay: Late-stage fluorescence-based counterscreen for antagonists of the G-protein coupled receptor 7 (GPR7): cell-based dose response assay to identify antagonists of the melanin-concentrating hormone receptor 1 (MCHR1) Set 5.; assay type: functional
[6] = biological target: Induced myeloid leukemia cell differentiation protein Mcl-1 (Homo sapiens, UniProt Q07820); assay type: functional
Induced myeloid leukemia cell differentiation protein Mcl-1, sequence (Q07820 whole entry): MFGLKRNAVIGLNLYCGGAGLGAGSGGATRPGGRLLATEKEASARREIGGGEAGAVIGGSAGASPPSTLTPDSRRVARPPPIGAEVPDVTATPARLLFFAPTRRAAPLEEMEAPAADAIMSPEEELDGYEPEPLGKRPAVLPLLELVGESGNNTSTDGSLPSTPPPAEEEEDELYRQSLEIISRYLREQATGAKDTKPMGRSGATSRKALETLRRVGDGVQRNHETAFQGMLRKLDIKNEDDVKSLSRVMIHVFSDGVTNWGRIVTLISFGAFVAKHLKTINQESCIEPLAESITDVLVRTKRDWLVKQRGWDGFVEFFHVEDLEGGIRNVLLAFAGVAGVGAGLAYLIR

Vero [7] = assay: Vero cell cytotoxicity, cytotoxicity control for flavivirus capping enzyme inhibitors (AID 588742); assay type: functional; conditions: Chlorocebus sabaeus
[8] = biological target: Platelet-activating factor acetylhydrolase (Mus musculus, UniProt Q60963); assay: Late stage assay provider results from the probe development effort to identify inhibitors of pPAFAH: fluorescence-based dose-response biochemical gel-based competitive Activity-Based Protein Profiling (ABPP) assay for SAR compounds.; assay type: functional
Interleukin-8 = Interleukin-8 (Homo sapiens, UniProt P10145); assay: Dose Response confirmation of uHTS small molecule hits for cystic fibrosis induced NFkb Inhibitors in a PAF-induced IL8 counterscreen.; assay type: functional; conditions: read-out: IC50_Mean
Interleukin-8, sequence (P10145 whole entry): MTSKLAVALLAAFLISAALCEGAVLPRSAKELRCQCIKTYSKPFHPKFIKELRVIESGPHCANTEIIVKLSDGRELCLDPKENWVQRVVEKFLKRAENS

[9] = tested on: Streptococcus sp. 'group A'; assay: growth inhibition of control SK(-) GAS strain, dose response, counter-screen for streptokinase expression inhibitor project, luminescence, kanamycin, BacTiterGlo, confirmation (AID 1900); assay type: functional, organism-based
BJ [10] = assay: cytotoxicity toward BJ-TERT fibroblasts, dose response, cell-based, RAS-independent, luminescence (AID 1933); assay type: functional; conditions: Homo sapiens
BJ [11] = assay: cells; assay type: functional, cell-based; conditions: Homo sapiens
[12] = inhibitors of intracellular T. cruzi replication, confirmation, NIH3T3 host cells, beta-gal luminescence (AID 2044); assay type: functional, cell-based;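 further: intracellular parasites grown in NIH/3T3 mouse fibroblasts as host cells; luminescent beta-galactosidase reporter signal from transgenic T. cruzi replicating inside host cells; inhibitors lower the luminescence signal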
[13] = cytotoxicity toward NIH3T3 fibroblasts, dose response, counter-screen, cell-based, ATP luminescence, mouse fibroblasts (AID 2010); assay type: functional;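 further: cells exposed to compound for about 90 hours before reading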
BJ [14] = assay: cytotoxicity toward BJ-TERT-LT-ST fibroblasts, dose response, cell-based, RAS-independent, luminescence (AID 1935); assay type: functional; conditions: Homo sapiens;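 further: BJ fibroblasts immortalized with TERT plus LT and ST oncogenes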
[15] = cytotoxicity toward DRD oncogenic fibroblasts, dose response, cell-based, non-viral oncogenic, luminescence (AID 1934); assay type: functional; conditions: Homo sapiens
Streptococcus = assay: Group A Streptococcus viability loss, dose response, counter-screen for streptokinase expression inhibitor project, luminescence, BacTiterGlo (AID 1915); assay type: functional, organism-based;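 further: potency for reduction of bacterial viability or growth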
Nonstructural protein 1 = Nonstructural protein 1 (Influenza A virus, UniProt Q194T2); assay type: functional, Influenza A virus (A/California/07/2009(H1N1))
Nonstructural protein 1, sequence (Q194T2 whole entry): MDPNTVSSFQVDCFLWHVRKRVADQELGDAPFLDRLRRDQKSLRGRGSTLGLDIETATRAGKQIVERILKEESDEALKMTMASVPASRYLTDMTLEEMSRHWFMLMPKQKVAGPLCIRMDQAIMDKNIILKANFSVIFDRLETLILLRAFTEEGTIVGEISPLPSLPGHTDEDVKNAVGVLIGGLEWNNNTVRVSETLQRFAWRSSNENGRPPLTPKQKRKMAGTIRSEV

Vero [16] = assay: cells; assay type: functional; conditions: Chlorocebus sabaeus
[17] = biological target: T5, Polyadenylate-binding protein 1 (Homo sapiens, UniProt P11940); assay: PABP1 MLLE–PAM2 interaction inhibitors, dose response, miRNA deadenylation inhibitor project, biochemical, fluorescence polarization, Cy5-PAM2 peptide, secondary (AID 602260); assay type: functional; conditions: read-out: IC50_Mean
T5 sequence (P11940 whole entry): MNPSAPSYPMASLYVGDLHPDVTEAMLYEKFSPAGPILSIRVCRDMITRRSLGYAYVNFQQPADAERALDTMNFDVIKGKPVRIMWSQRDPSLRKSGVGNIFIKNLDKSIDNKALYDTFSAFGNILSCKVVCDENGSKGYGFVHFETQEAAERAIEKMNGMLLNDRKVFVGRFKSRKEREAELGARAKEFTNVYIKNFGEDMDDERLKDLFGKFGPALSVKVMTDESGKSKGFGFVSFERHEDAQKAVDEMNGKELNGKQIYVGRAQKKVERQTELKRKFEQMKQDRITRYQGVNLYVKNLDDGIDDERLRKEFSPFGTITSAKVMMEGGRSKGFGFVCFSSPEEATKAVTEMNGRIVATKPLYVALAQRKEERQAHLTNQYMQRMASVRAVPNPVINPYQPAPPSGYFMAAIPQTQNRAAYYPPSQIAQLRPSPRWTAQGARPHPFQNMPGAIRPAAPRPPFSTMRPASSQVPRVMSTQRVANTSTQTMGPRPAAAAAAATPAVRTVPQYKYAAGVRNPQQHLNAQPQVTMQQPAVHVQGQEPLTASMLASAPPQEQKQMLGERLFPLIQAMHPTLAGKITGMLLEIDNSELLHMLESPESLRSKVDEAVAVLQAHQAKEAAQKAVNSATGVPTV

[18] = biological target: T5, Polyadenylate-binding protein 1; assay: PABP1 MLLE–PAM2 binding inhibitor potency, dose response, biochemical, fluorescence polarization, FITC-PAM2 peptide (AID 602259); assay type: functional; conditions: read-out: IC50_Mean
[19] = biological target: Mitochondrial peptide methionine sulfoxide reductase (Bos taurus, UniProt P54149); assay type: functional;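 further: absorbance read-out, biochemical high-throughput dose-response screen for MsrA inhibitors, confirmatory; recombinant bovine MsrA coupled to E. coli TrxB with NADPH and selenocystamine; potency is for inhibitors of MsrA activity on DMSO substrate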
Mitochondrial peptide methionine sulfoxide reductase, sequence (P54149 whole entry): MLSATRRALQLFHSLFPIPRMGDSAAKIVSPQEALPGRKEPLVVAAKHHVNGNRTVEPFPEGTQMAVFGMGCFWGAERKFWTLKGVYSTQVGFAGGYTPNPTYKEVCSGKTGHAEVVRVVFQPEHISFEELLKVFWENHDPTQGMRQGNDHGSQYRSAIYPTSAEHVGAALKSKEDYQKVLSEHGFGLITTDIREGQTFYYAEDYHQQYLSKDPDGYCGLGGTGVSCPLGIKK

[20] = biological target: Eukaryotic translation initiation factor 4E (Mus musculus, UniProt P63073); assay: eIF4E–eIF4G protein interaction inhibitors, dose response, biochemical, TR-FRET (AID 855); assay type: functional;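 further: potency for disrupting eIF4E binding to eIF4GI seen as loss of FRET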
Eukaryotic translation initiation factor 4E, sequence (P63073 whole entry): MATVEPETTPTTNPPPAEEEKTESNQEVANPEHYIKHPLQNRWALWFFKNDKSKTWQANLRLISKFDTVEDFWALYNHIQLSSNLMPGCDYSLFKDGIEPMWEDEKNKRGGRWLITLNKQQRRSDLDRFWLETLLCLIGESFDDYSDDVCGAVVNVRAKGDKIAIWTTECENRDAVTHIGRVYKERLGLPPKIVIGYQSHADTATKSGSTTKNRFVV

[21] = AlphaScreen signal interference compounds, dose response, artefact control for ARNT-TACC3 interaction inhibitor project, biochemical, luminescence, cherry-pick (AID 651705); assay type: functional;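 further: AlphaScreen bead proximity signal that flags compounds interfering with the detection technology; potency reflects signal decrease which marks the compound as an assay artifact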
[22] = biological target: Ras and Rab interactor 1/Tyrosine-protein kinase ABL1 (Homo sapiens, UniProt P00519+Q13671); assay type: functional;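 further: biochemical TR-FRET dose-response test measuring inhibition of binding between Rin1 and Abl proteins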
Ras and Rab interactor 1/Tyrosine-protein kinase ABL1, sequence (P00519 whole entry): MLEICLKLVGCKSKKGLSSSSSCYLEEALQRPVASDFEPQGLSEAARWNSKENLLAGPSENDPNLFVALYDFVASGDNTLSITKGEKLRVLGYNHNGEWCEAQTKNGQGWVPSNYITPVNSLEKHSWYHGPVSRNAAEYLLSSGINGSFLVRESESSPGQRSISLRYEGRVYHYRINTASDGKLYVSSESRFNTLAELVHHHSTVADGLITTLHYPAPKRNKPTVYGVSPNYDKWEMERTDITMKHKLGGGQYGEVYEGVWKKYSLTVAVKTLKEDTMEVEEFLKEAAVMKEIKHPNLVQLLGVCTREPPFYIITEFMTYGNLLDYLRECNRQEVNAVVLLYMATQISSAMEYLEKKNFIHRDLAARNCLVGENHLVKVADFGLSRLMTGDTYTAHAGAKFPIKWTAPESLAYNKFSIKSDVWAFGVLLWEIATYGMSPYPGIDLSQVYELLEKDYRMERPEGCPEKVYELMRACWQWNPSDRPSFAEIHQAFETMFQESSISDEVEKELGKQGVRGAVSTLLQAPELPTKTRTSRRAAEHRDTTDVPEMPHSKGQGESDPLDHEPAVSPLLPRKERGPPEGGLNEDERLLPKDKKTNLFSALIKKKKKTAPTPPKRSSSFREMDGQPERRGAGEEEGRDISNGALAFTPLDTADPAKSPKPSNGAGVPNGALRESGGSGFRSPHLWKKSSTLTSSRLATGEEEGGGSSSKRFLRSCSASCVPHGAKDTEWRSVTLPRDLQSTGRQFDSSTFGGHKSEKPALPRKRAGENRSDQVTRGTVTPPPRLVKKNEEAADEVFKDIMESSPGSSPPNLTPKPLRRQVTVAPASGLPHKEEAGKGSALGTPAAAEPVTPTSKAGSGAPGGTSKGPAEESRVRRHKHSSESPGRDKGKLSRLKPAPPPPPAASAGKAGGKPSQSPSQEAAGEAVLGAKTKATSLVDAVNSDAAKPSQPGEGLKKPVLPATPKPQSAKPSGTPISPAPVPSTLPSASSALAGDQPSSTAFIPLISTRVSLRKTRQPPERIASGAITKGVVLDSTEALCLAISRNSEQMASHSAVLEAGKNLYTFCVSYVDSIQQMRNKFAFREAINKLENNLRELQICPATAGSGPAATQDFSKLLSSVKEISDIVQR
Ras and Rab interactor 1/Tyrosine-protein kinase ABL1, sequence (Q13671 whole entry): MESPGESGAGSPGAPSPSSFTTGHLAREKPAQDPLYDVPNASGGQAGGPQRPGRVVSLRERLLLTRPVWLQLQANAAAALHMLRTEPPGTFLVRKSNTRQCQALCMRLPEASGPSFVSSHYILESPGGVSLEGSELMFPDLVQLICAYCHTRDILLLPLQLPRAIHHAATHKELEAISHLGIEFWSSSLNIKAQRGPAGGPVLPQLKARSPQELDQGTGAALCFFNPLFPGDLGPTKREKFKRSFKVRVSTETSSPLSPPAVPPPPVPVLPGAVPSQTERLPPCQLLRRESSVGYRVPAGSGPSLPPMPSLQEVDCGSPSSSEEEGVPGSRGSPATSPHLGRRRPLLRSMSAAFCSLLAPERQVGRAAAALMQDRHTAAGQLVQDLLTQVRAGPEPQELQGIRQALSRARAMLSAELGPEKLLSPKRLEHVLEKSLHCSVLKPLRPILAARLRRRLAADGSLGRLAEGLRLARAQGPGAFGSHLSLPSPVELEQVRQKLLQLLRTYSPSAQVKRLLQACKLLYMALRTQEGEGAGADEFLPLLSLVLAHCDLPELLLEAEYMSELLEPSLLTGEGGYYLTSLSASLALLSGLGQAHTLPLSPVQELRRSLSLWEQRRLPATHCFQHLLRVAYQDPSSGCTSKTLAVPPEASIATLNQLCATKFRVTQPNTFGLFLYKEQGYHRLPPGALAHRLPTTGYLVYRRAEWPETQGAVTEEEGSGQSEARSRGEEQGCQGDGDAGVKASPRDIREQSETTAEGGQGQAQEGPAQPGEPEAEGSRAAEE

[23] = biological target: DNA (cytosine-5)-methyltransferase 1 (Homo sapiens, UniProt P26358); assay: DNMT1 methyltransferase inhibitors, confirmation, biochemical, fluorescent molecular beacon (AID 602386); assay type: functional
[24] = biological target: SWI/SNF-related matrix-associated actin-dependent regulator of chromatin subfamily A member 2 (Homo sapiens, UniProt P51531); assay: Luminescence-based cell-based high throughput dose response assay to identify activators of the function of SWI/SNF related, matrix associated, actin dependent regulator of chromatin, subfamily a, member 2 (SMARCA2, BRM).; assay type: functional
[25] = Counterscreen for activators of the function of SWI/SNF related, matrix associated, actin dependent regulator of chromatin, subfamily a, member 2 (SMARCA2, BRM): Luminescence-based cell-based high throughput dose response assay to identify non-selective compounds using the VP16 reporter assay.; assay type: functional
Cytochrome P450 3A4 = Cytochrome P450 3A4 (Homo sapiens, UniProt P08684); conditions: Potency;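 further: confirmatory qHTS run detecting inhibitors and substrates of CYP3A4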
Cytochrome P450 3A4, sequence (P08684 whole entry): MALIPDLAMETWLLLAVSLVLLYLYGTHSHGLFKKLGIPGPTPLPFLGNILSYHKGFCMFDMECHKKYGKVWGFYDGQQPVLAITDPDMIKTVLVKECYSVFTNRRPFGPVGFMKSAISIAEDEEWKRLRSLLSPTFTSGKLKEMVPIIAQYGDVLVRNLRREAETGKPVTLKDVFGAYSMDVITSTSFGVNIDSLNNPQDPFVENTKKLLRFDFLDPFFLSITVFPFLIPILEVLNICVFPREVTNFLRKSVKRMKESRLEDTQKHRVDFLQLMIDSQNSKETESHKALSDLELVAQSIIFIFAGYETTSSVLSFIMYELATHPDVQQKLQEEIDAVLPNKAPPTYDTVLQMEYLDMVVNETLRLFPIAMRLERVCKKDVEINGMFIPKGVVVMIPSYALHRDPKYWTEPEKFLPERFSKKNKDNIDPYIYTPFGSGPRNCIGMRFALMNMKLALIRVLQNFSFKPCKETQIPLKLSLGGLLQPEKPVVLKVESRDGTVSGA

## c1ccn2cc(-c3ccc4c(c3)OCCO4)nc2c1
[1]
  AC50: 4.31 µM (active)
Trypsin
  AC50: 6.17 µM (active)
HEK293
  AC50: 1.53 µM (active)
HeLa
  AC50: 55.2 µM (active)
Protein skinhead-1
  IC50: > 100 µM (inactive)

## N#CC(c1ccccn1)c1c(Cl)cnn(Cc2cccc3ccccc23)c1=O (configuration not stated)
[2]
  IC50: 0.564 µM (active)
[3]
  IC50: 0.564 µM (active)

## CCOC(=O)C(C#N)c1ccnn(Cc2cccc3ccccc23)c1=O (configuration not stated)
[4]
  IC50: 1.74 µM (active)
[5]
  IC50: 15 µM (inactive)

## CNc1ccc(Br)cc(C(=O)/C=C/c2ccc(OC)cc2OC)c1=O
[6]
  IC50: 2.17 µM (active)
Vero [7]
  CC50: > 40 µM (active)

## Cc1cc(N2CCN(C(=O)Oc3ccc(-n4cccc4)cc3)CC2)c2ccccc2n1
[8]
  IC50: 0.057 µM (active)

## N#CC(c1ccsc1)c1c(Cl)cnn(Cc2cccc3ccccc23)c1=O (configuration not stated)
[4]
  IC50: 0.325 µM (active)
[5]
  IC50: 0.794 µM (active)

## COc1ccc(/C(C#N)=C/c2cccnc2)cc1
[1]
  AC50: 9.73 µM (active)
HeLa
  AC50: 254 µM (active)

## NC(=O)c1cc2ccc(O)cc2o/c1=N\c1ccccc1
Interleukin-8
  IC50: 6.71 µM (active)

## CCc1ccc2c(c1)C1(NN=C(c3ccccc3)S1)C(=O)N2 (configuration not stated)
[9]
  EC50: 0.278 µM (active)
BJ [10]
  EC50: 13.7 µM (inconclusive)
BJ [11]
  EC50: 86.3 µM (active)
[12]
  EC50: 0.524 µM (active)
[13]
  EC50: 5.31 µM (active)
BJ [14]
  EC50: 17.7 µM (inconclusive)
[15]
  EC50: 49.4 µM (active)
Streptococcus
  EC50: 1.84 µM (active)
Nonstructural protein 1
  IC50: 45.5 µM (active)
Vero [7]
  CC50: 7.61 µM (active)
Vero [16]
  CC50: 14.9 µM (active)
[17]
  IC50: > 66 µM (inactive)
[18]
  IC50: > 66 µM (inactive)

## C/C(=N\Nc1ccc(S(N)(=O)=O)cc1[N+](=O)[O-])c1cccnc1
[19]
  IC50: 155 µM (inactive)

## CC(C)(C)C1=Nn2c(nnc2-c2ccccn2)SC1
[20]
  IC50: > 64 µM (inactive)
[21]
  AC50: 107 µM (active)

## CCOC(=O)CCCCC(=O)c1[nH]c(O)nc1CN1CCOCC1
[22]
  IC50: 0.548 µM (active)

## O=C1c2ccccc2-c2cccc3cccc1c23 [BENZANTHRONE]
[17]
  IC50: > 66 µM (inactive)
[23]
  IC50: 41 µM (active)
[18]
  IC50: 34 µM (inactive)
[24]
  EC50: > 91.2 µM (inactive)
[25]
  EC50: > 91.2 µM (inactive)
Cytochrome P450 3A4
  AC50: 39.8 µM (inconclusive)

## N#CC(C#N)c1c(Cl)cnn(Cc2cccc3ccccc23)c1=O
[2]
  IC50: 17.4 µM (inactive)
[3]
  IC50: 17.4 µM (inactive)
